Earlier results on two compounds are cited in patent US10759750B2, “Beta lactams as modulators of glutamate uptake and methods for use thereof” (Temple University—Of The Commonwealth System of Higher …, priority 2016, dated 2020).

Where two headings read alike, the source gives them in different places.

For data set [1], the system named is amyotrophic lateral sclerosis (ALS). The settings on record: ALS patients; 50 mg of Riluzole daily and palliative drugs; after 15 months of treatment.

For `Nc1nc2ccc(OC(F)(F)F)cc2s1` [Riluzole], the “increase in life expectancy” value in data set [1] is 2-3 months. With `CO/N=C(\C(=O)N[C@@H]1C(=O)N2C(C(=O)O)=C(CSc3nc(=O)c(=O)[nH]n3C)CS[C@H]12)c1csc(N)n1` [ceftriaxone], the “free, unbound cerebrospinal fluid/plasma ratio” value by setting is: (based on AUCs (Lutsar and Friedland, 2000)) 1%; (based on Cmax (Chadwick et al., 1983)) 2-13%.
